According to ChEMBL document CHEMBL6127073, “Utilizing artificial intelligence for precision exploration of N protein targeting phenanthridine sars-cov-2 inhibitors: A novel approach” (Eur J Med Chem, 2024):
The source made the active and inactive calls. The rule behind the calls is not given here.

Experiments:
[1] = target: T1, Nucleoprotein (Severe acute respiratory syndrome coronavirus 2, UniProt P0DTC9); assay: Binding affinity to SARS-CoV-2 N-pro assessed as dissociation constant by SPR analysis
[2] = target: T1, Nucleoprotein; assay: Binding affinity to SARS-CoV-2 N-pro assessed as dissociation constant by MST analysis
[3] = Cytotoxicity against African green monkey Vero E6 cells after 72 hrs by CCK8 assay; type: toxicity, cell-based, Vero C1008; conditions: chlorocebus sabaeus
[4] = test system: SARS-CoV-2; assay: Antiviral activity against SARS-CoV-2 107 infected in African green monkey Vero E6 cells assessed as inhibition of virus induced cytopathic effect by neutral red staining based analysis; type: functional, organism-based; conditions: Severe acute respiratory syndrome coronavirus 2, time 74.0 hrs
[5] = test system: SARS-CoV-2; assay: Antiviral activity against SARS-CoV-2 107 infected in African green monkey Vero E6 cells assessed as increase in cell survival rate at 50 uM pre-infected with virus followed by compound addition for 2 hrs and measured after 72 hrs by MTT assay; type: functional, organism-based; conditions: Severe acute respiratory syndrome coronavirus 2, time 74.0 hrs
[6] = test system: SARS-CoV-2; assay: Antiviral activity against SARS-CoV-2 107 infected in African green monkey Vero E6 cells assessed as inhibition of viral replication pre-infected with virus followed by compound addition and measured after 72 hrs by inverted microscopic analysis; type: functional, organism-based; conditions: Severe acute respiratory syndrome coronavirus 2, 107, Vero C1008, 72 h
[7] = Selectivity index, ratio of CC50 for cytotoxicity against African green monkey Vero E6 cells to EC50 for antiviral activity against SARS-CoV-2 107 infected in African green monkey Vero E6 cells; type: toxicity, cell-based; conditions: read-out: Ratio CC50/EC50
[8] = target: T1, Nucleoprotein; assay: Binding affinity to SARS-CoV-2 N-pro assessed as dissociation constant in presence of ssRNA by MST analysis
[9] = target: Nucleoprotein (Severe acute respiratory syndrome coronavirus 2) (UniProt P0DTC9); assay: Inhibition of ssRNA binding to SARS-CoV-2 N-pro at 100 uM by MST analysis relative to control
[10] = target: T1, Nucleoprotein; assay: Binding affinity to wild type SARS-CoV-2 N-pro assessed as dissociation constant by MST analysis

| SMILES | Kd [1] | further results |
| --- | --- | --- |
| CCN1Cc2cc(OC)c(OC)cc2-c2cccc(NC(=O)c3cc([N+](=O)[O-])cc([N+](=O)[O-])c3)c21 | 37.9 µM | – |
| CCn1c(=O)c2cc(OC)c(OC)cc2c2cccc(/C=N/c3nc[nH]n3)c21 | 63.7 µM | – |
| CCN1Cc2cc(OC)c(OC)cc2-c2cccc(Nc3ncnc4c3nnn4Cc3ccccc3)c21 | 0.35 µM | Kd [2]: 0.73 µM; CC50 at 72 h [3]: > 200 µM; Activity [4]: Active; Activity [5]: Active; EC50 [6]: 11.3 µM; selectivity ratio [7]: > 17.7; Kd [8]: 83.7 µM; inhibition [9]: 100%; Kd [10]: 5.4 µM |
| CCN1Cc2cc(OC)c(OC)cc2-c2cccc(NCc3ccc(C4(C(F)(F)F)N=N4)cc3)c21 | 37 µM | – |
| CCn1c(=O)c2cc(OC)c(OC)cc2c2cccc(C3C4=C(CCCC4=O)N(c4ccccc4)C4=C3C(=O)CCC4)c21 | 168 µM | – |
| CCn1c(=O)c2cc(OC)c(OC)cc2c2cccc(/N=C/c3c4ccccc4cc4ccccc34)c21 | 9.71 µM | – |
| CCn1c(=O)c2cc(OC)c(OC)cc2c2cccc(NS(=O)(=O)c3ccc(Cl)cc3)c21 | 5.27 µM | – |
| CCn1c(=O)c2cc(OC)c(OC)cc2c2cccc(/C=N/C3C=CNN3)c21 (stereo unspecified) | 2.53 µM | – |
| CCN1Cc2cc(OC)c(OC)cc2-c2cccc(Nc3ccc4c(c3)oc3ccccc34)c21 | 44.1 µM | – |
| CCN1Cc2cc(OC)c(OC)cc2-c2cccc(NC(=O)Nc3cccc4c3N(CC)Cc3cc(OC)c(OC)cc3-4)c21 | 4.58 µM | – |
| CCN1Cc2cc(OC)c(OC)cc2-c2cccc(NCc3csc4ccc(Cl)cc34)c21 | 97.7 µM | – |
| CCN1Cc2cc(OC)c(OC)cc2-c2cccc(NC(=O)Cc3ccccc3)c21 | 5.31 µM | – |
